Laboratory results as given in patent publication US20110039783A1, “PEPTIDE HAVING HYPOTENSIVE ACTIVITY” (DAIICHI SANKYO COMPANY LIMITED, priority 2007, published 2011).
Where no end group is shown, it is not given here. [ ]: non-standard residue; d: D form. Cha = N[C@@H](CC1CCCCC1)C(=O)O

Test system: blood pressure of anesthetized Sprague-Dawley IGS male rats
Experiment: Hypotensive activity in anesthetized rats, invasive blood pressure measurement after intravenous administration
Assay type: in vivo, rat
Settings: for Hypotensive activity (dose/rat) 10 nmol / Hypotensive activity (dose/rat) 30 nmol / Hypotensive activity (dose/rat) 100 nmol: anesthetized rats, intravenous; for Hypotensive activity (dose/rat) 10 nmol: 10 nmol/rat; for Hypotensive activity (dose/rat) 30 nmol: 30 nmol/rat; for Hypotensive activity (dose/rat) 100 nmol: 100 nmol/rat; for dose dependence of hypotensive activity: anesthetized rats, 10, 30, 100 nmol/rat
Protocol: 50 mg/kg pentobarbital sodium was intraperitoneally administered to 8- to 10-week-old Sprague-Dawley IGS male rats (Charles River Laboratories Japan, Inc.) for anesthesia. Thereafter, a tracheal cannula (PE 250), a femoral vein cannula (PE50), and a femoral artery cannula (PESO) were inserted into each rat. The femoral artery cannula was connected with a pressure transducer (PE23XL; manufactured by Nihon Kohden Corporation), and an apparatus formed by incorporating a blood pressure measurement unit (AP-641G; manufactured by Nihon Kohden Corporation) and an instantaneous heart rate measurement unit (AT-601G; manufactured by Nihon Kohden Corporation) into a multi-purpose preamplifier (RP-6004; manufactured by Nihon Kohden Corporation) was used to record the blood pressure and heart rate of each rat. The blood pressure was calibrated using a mercury manometer included in a stand-type electromanometer (MP-25S; manufactured by Nihon Kohden Corporation). The recording paper was adjusted, such that 10 mm or 20 mm on the recording paper corresponded to 100 mmHg.
Each peptide was dissolved in a concentration of 1 mM or 10 mM in a 0.1% acetic acid solution to prepare a peptide solution. Thereafter, depending on dose, it was diluted with a normal saline containing 0.1% bovine serum albumin (Fr.V). In the case of the dose of 10 nmol/rat, a 1 mM peptide solution was 10 times diluted, and 100 μl of the diluted solution was administered. In the case of the dose of 30 nmol/rat, a 1 mM peptide solution was 10 times diluted, and 300 μL, of the diluted solution was administered. In the case of the dose of 100 nmol/rat, a 10 mM peptide solution was 10 times diluted, and 100 μL of the diluted solution was administered. Each peptide was intravenously administered via the femoral vein cannula, and the systolic blood pressure, diastolic blood pressure, and heart rate were then measured.
Various HC021 derivative peptides were synthesized in accordance with Example 1, and such peptide was then administered to each rat at a dose of 10 nmol/rat, 30 nmol/rat, or 100 mol/rat by the method described in Example 2. Thereafter, the hypotensive activity of each derivative peptide was measured. […] The strength of such activity was determined using a median of activity in repeated experiments. In addition, in order to make a comparison among the activities of various derivative peptides, the strength of hypotensive activity was defined as follows.
Strength of Hypotensive Activity
Extremely strong activity (+++): A decrease in systolic blood pressure is 30 mmHg or more, and the time required for recovery is 5 minutes or more.
Strong activity (++): A decrease in systolic blood pressure is 20 mmHg or more and less than 30 mmHg, or the time required for recovery is less than 5 minutes.
Activity observed (+): A decrease in systolic blood pressure is less than 20 mmHg.
Activity not observed (−)
Various HC021 peptide sequence-substituted products were synthesized in accordance with Example 1, and their hypotensive activity was then measured according to the method of Example 3.

Row | Substance | Hypotensive activity (dose/rat) 10 nmol (Table 3) | Hypotensive activity (dose/rat) 30 nmol (Table 3) | Hypotensive activity (dose/rat) 30 nmol (Table 2) | Hypotensive activity (dose/rat) 100 nmol (Table 2) | further results
1 | ATLGSEDTWKPLSNPRNRDLFPRRLQAYFK-amide [Compound 35] | − | ++ (Strong activity (++): A decrease in systolic blood pressure is 20 mmHg or more and less than 30 mmHg, or the time required for recovery is less than 5 minutes.) |  |  | 
2 | ATLGSEDTWKPLSNPRNRELFFRSLQAYF-amide [Compound 38] | − | − |  |  | Hypotensive activity (dose/rat) 100 nmol (Table 3): ++ (Strong activity (++): A decrease in systolic blood pressure is 20 mmHg or more and less than 30 mmHg, or the time required for recovery is less than 5 minutes.)
3 | ATLGSEDTWKPLSNPRNRELFFRSLQAYFK-amide [Compound 37] | − | − |  |  | Hypotensive activity (dose/rat) 100 nmol (Table 3): ++ (Strong activity (++): A decrease in systolic blood pressure is 20 mmHg or more and less than 30 mmHg, or the time required for recovery is less than 5 minutes.)
4 | ATLRNEDTWKPLSNPRNRDLFFRRLQAYFK-amide [Compound 34] | − | + (Activity observed (+): A decrease in systolic blood pressure is less than 20 mmHg.) |  |  | 
5 | ATVRNEDKWKPLNNPRNRDLFF [Compound 1] |  |  | − | − | Hypotensive activity (dose/rat) 10 nmol (Table 1): −; Hypotensive activity (dose/rat) 30 nmol (Table 1): −; Hypotensive activity (dose/rat) 100 nmol (Table 1): −; Hypotensive activity (dose/rat) 10 nmol (Table 2): −
6 | ATVRNEDKWKPLNNPRNRDLFFRRLQAYF [Compound 9] |  |  | − | +++ (Extremely strong activity (+++): A decrease in systolic blood pressure is 30 mmHg or more, and the time required for recovery is 5 minutes or more.) | 
7 | ATVRNEDKWKPLNNPRNRDLFFRRLQAYF-amide [Compound 10] |  |  | ++ (Strong activity (++): A decrease in systolic blood pressure is 20 mmHg or more and less than 30 mmHg, or the time required for recovery is less than 5 minutes.) |  | Hypotensive activity (dose/rat) 10 nmol (Table 2): −
8 | ATVRNEDKWKPLNNPRNRDLFFRRLQAYFK (not fully specified) [Compound 8] |  |  | − | +++ (Extremely strong activity (+++): A decrease in systolic blood pressure is 30 mmHg or more, and the time required for recovery is 5 minutes or more.) | 
9 | DLFFRRLQAYFK-amide (DLFFRRLQAYFK-NH2) [Compound 17] |  |  | ++ (Strong activity (++): A decrease in systolic blood pressure is 20 mmHg or more and less than 30 mmHg, or the time required for recovery is less than 5 minutes.) | +++ (Extremely strong activity (+++): A decrease in systolic blood pressure is 30 mmHg or more, and the time required for recovery is 5 minutes or more.) | Hypotensive activity (dose/rat) 10 nmol (Table 2): −; dose dependence of hypotensive activity: enhanced their hypotensive activity in a dose-dependent manner
10 | FFRRLQAYFK-amide (FFRRLQAYFK-NH2) [Compound 20] |  |  | − | − | 
11 | FRRLQAYFK-amide (FRRLQAYFK-NH2) [Compound 21] |  |  | − | − | 
12 | FVPIFTYGELQRMQNRDLFFRRLQAYFK-amide (FVPIFTYGELQRMQNRDLFFRRLQAYFK-NH2) [Compound 39] | − | − |  |  | Hypotensive activity (dose/rat) 100 nmol (Table 3): +++ (Extremely strong activity (+++): A decrease in systolic blood pressure is 30 mmHg or more, and the time required for recovery is 5 minutes or more.)
13 | GATVRNEDKWKPLNNPRNRDLFFRRLQAYFK-amide [Compound 7] |  |  | ++ (Strong activity (++): A decrease in systolic blood pressure is 20 mmHg or more and less than 30 mmHg, or the time required for recovery is less than 5 minutes.) |  | Hypotensive activity (dose/rat) 10 nmol (Table 2): −
14 | LFERRLQAYFKNGAEDESAEAFPLEF-amide (LFERRLQAYFKNGAEDESAEAFPLEF-NH2) [Compound 48] | +++ (Extremely strong activity (+++): A decrease in systolic blood pressure is 30 mmHg or more, and the time required for recovery is 5 minutes or more.) |  |  |  | 
15 | LFFRRLQA(Cha)FK-amide (LFFRRLQA[Cha]FK-NH2; N-terminus assumed; SMILES CC(C)C[C@H](NC(=O)[C@H](CCCNC(=N)N)NC(=O)[C@H](CCCNC(=N)N)NC(=O)[C@H](Cc1ccccc1)NC(=O)[C@H](Cc1ccccc1)NC(=O)[C@@H](N)CC(C)C)C(=O)N[C@@H](CCC(N)=O)C(=O)N[C@@H](C)C(=O)N[C@@H](CC1CCCCC1)C(=O)N[C@@H](Cc1ccccc1)C(=O)N[C@@H](CCCCN)C(N)=O) [Compound 45] | + (Activity observed (+): A decrease in systolic blood pressure is less than 20 mmHg.) | +++ (Extremely strong activity (+++): A decrease in systolic blood pressure is 30 mmHg or more, and the time required for recovery is 5 minutes or more.) |  |  | 
16 | LFFRRLQA-amide (LFFRRLQA-NH2) [Compound 26] |  |  | − | − | 
17 | LFFRRLQAHFK-amide (LFFRRLQAHFK-NH2) [Compound 47] | − | − |  |  | Hypotensive activity (dose/rat) 100 nmol (Table 3): +++ (Extremely strong activity (+++): A decrease in systolic blood pressure is 30 mmHg or more, and the time required for recovery is 5 minutes or more.)
18 | LFFRRLQALFK-amide (LFFRRLQALFK-NH2) [Compound 44] | − | ++ (Strong activity (++): A decrease in systolic blood pressure is 20 mmHg or more and less than 30 mmHg, or the time required for recovery is less than 5 minutes.) |  |  | 
19 | LFFRRLQAWFK-amide (LFFRRLQAWFK-NH2) [Compound 46] | − | − |  |  | Hypotensive activity (dose/rat) 100 nmol (Table 3): + (Activity observed (+): A decrease in systolic blood pressure is less than 20 mmHg.)
20 | LFFRRLQAY-amide (LFFRRLQAY-NH2) [Compound 25] |  |  | − | + (Activity observed (+): A decrease in systolic blood pressure is less than 20 mmHg.) | 
21 | LFFRRLQAYF-amide (LFFRRLQAYF-NH2) [Compound 24] |  |  | ++ (Strong activity (++): A decrease in systolic blood pressure is 20 mmHg or more and less than 30 mmHg, or the time required for recovery is less than 5 minutes.) |  | 
22 | LFFRRLQAYFK [Compound 18] |  |  | − | ++ (Strong activity (++): A decrease in systolic blood pressure is 20 mmHg or more and less than 30 mmHg, or the time required for recovery is less than 5 minutes.) | 
23 | LFFRRLQAYFK-amide (LFFRRLQAYFK-NH2) [Compound 19] | + (Activity observed (+): A decrease in systolic blood pressure is less than 20 mmHg.) | ++ (Strong activity (++): A decrease in systolic blood pressure is 20 mmHg or more and less than 30 mmHg, or the time required for recovery is less than 5 minutes.) | ++ (Strong activity (++): A decrease in systolic blood pressure is 20 mmHg or more and less than 30 mmHg, or the time required for recovery is less than 5 minutes.) | +++ (Extremely strong activity (+++): A decrease in systolic blood pressure is 30 mmHg or more, and the time required for recovery is 5 minutes or more.) | Hypotensive activity (dose/rat) 10 nmol (Table 2): + (Activity observed (+): A decrease in systolic blood pressure is less than 20 mmHg.); Hypotensive activity (dose/rat) 100 nmol (Table 3): +++ (Extremely strong activity (+++): A decrease in systolic blood pressure is 30 mmHg or more, and the time required for recovery is 5 minutes or more.); dose dependence of hypotensive activity: enhanced their hypotensive activity in a dose-dependent manner
24 | LFFRRLQAYFKASASADYEEQKNSFHNYLK- amide [Compound 49] | +++ (Extremely strong activity (+++): A decrease in systolic blood pressure is 30 mmHg or more, and the time required for recovery is 5 minutes or more.) |  |  |  | 
